Experimental data from patent US6214805A, “RNase L activators and antisense oligonucleotides effective to treat RSV infections” (priority 1997, dated 2001).
pEC50, pIC50: −log10 of the molar value. Where “and” joins values, the source holds several entries; their conditions need not be identical. Equal values may be shown once.

Assays:
[1] = system: RSV strain A2; assay: Inhibition of RSV replication in RSV-infected 9HTE cells, virus plaque assay on CV-1 cells at 36 h post-infection; assay type: cell-based, Respiratory syncytial virus; conditions: 9HTE cells; for % Inhibition of RSV replication: M.O.I. 2.0, 36 hrs post-infection
Source text: To develop 2-5A antisense chimeras with the potential to block RSV replication, an oligonucleotide binding site in the viral RNA polymerase (RSV L) mRNA, which encodes a low abundance message that is absolutely required for RSV replication was selected. The first chimera synthesized and evaluated was pA4 -antiRSV/(8490-8509). The binding sites for the chimeric oligonucleotide's antisense domain are to the transcripts of nucleotides 8490-8509 in the RSV genome, which spans the translation start codon for the L protein, and to nucleotides 8490-8509 of the antigenomic strand (the template for reproduction of the genome). Since to function as an effective treatment, a candidate agent must be able to inhibit viral replication subsequent to diagnosis, the anti-RSV effect of the 2-5A antisense chimera was determined on human tracheal epithelial cells, 9HTE, with treatments beginning either 4 h before RSV infection (pre-/post-infection treatments) or 2 h following infection (post-infection treatments). In the post-infection treatments, pA4 -antiRSV/([…]), was added at t+2, t+14 and t+26, (numbers represent time in h relative to time of infection, 0) For pre-infection treatment, pA4 -antiRSV/(8490-8509) (10 μM final concentration), was added at t-4, and t0 in addition to […]; t+14 and t+26. Virus harvested from control and oligonucleotide-treated 9HTE cells was measured by infecting CV-1 cells and subsequently counting viral plaques. […] On the basis of these experiments, all subsequent experiments were performed with post-infectiontreatments only. Additionally, these experiments indicate the potential use of these compounds as a treatment for active infection as compared to a prophylactic measure.
The human tracheal epithelial cell line, 9HTE, (Gruenert et al., 1988) and CV-1 cells, (American Type Culture Collection, Rockville, Md., CCI#70) a green monkey kidney cell line which is highly permissive to RSV infection, were cultured in minimal essential medium (MEM) supplemented with 10% (v/v) fetal bovine serum (FBS), 2 mM L-glutamine, 1× MEM amino acids solution, 1× MEM non-essential amino acids solution, 100 U/ml penicillin, 100 μg/ml streptomycin and 0.25 μg/ml amphotericin B ("culture medium") (all reagents from Gibco BRL, Bethesda, Md.). RSV strain A2 (ATCC No. VR1302) was propagated in CV-1 cells. CV-1 monolayers were infected at a multiplicity of infection (M.O.I.) of 0.2 and cultured 46 h in MEM, 2% FBS, 1× Penicillin/Streptomycin (PS) in 5% CO2, 95% O2 at 37° C. Cells were then washed 2 times in MEM and subsequently covered in MEM, 2% FBS, 1× PS, 50 mM HEPES (pH7.5), 100 mM Mg(SO4). After 2 h at 37° C., cells were scraped and sonicated as previously described (Panuska et al., 1995). Aliquots (1 ml each) of cell sonicates were flash frozen in ethanol/dry ice within 20 min of scraping. Several aliquots were then thawed and titered by a plaque assay on CV-1 cells as previously described (Cirino et al., 1993). The range of virus yield from this procedure was 2 to 7×10^6 plaque forming units (pfu) per ml.
Infection of 9HTE cells was performed as previously described (Merolla et al., 1994). Briefly, confluent monolayers were exposed to RSV diluted in MEM, 2% FBS, for 2 h at 37° C. in 5% CO2, 95% O2. After exposure, cells were washed two times with serum-free MEM media and then fresh culture media (with 10% FBS) was added. Oligonucleotides were either added 4 h prior to infection (t-4) or immediately after infection (t+2) and also at t+14 and t+26. Cells were harvested for plaque assays at 36 h post-infection to determine viral titers as previously described (Cirino et al., 1993). Cells were washed twice to remove any residual antisense and were then scraped in MEM containing 2% FBS, 1× PS. 9HTE cells were sonicated for 20 sec on ice then the extracts were serially diluted and transferred to a confluent monolayer of CV-1 for quantitation of infectious viral particles. […]

[2] = system: RSV strain A2; assay: CPE inhibition assay in HEp-2 cells; assay type: cell-based, Respiratory syncytial virus; conditions: Table 10, CPE, HEp2; for pEC50: read-out: EC50
Procedure: The CPE inhibition assay used in this study was performed as described by Sidwell and Huffman (Sidwell et al., 1971, Appl. Microbiol. 22:7979-7801) with slight modifications. Varying concentrations of test compounds were added to each plate containing near confluent cell monolayers (1×10^5 cells/well) followed immediately by the addition of virus at a multiplicity of infection (MOI)=0.01, and then incubated at 37° C. […] All compounds were assayed for virus inhibition in quadruplicate and for cytotoxicity in duplicate. For each compound, two wells were set aside as uninfected, untreated cell controls per test and four wells per test received virus only and represented controls for virus replication. […] For all CPE-based assays, the 50% effective concentration (EC50) was calculated by regression analysis using the means of the CPE ratings at each concentration of compound.

[3] = system: Hep-2 Cells; assay: Cytotoxicity by morphological changes in HEp-2 cells (CPE inhibition assay); assay type: cell-based, human; conditions: Table 10, CPE, HEp2
Procedure: (§1) Embryonic African green monkey kidney cells (MA-104) were obtained from BioWhittaker, Inc. (Walkersville, Md.). HEp-2 cells were propagated from a human epidermoid carcinoma of the larynx (American Type Culture Collection, ATCC; Rockville, Md.). The cells were grown in minimal essential medium. (MEM, Gibco-BRL, Gaitherburg, Md.) supplemented with 0.1% NaHCO3 and 10% fetal bovine serum (FBS, Hyclone Laboratories, Logan Utah.). When performing antiviral assays, serum was reduced to 2% and 50 μg/ml gentamicin (Sigma Chemical Company, St. Louis, Mo.) was added to the medium.
Morphological changes due to compound cytotoxicity were graded on a scale of 0-5; grade 5 was defined as 100% cytotoxicity. The 50% cytotoxic dose (IC50 was calculated by regression analysis. A selective index (S.I.) was calculated for each compound [S.I.=(IC50)/(EC50 ].

[4] = system: RSV strain A2; assay: Neutral red uptake assay of CPE inhibition in HEp-2 cells; assay type: cell-based, Respiratory syncytial virus; conditions: Table 11, neutral red, HEp2; for pEC50: read-out: EC50
Procedure: (§2) This assay was performed by a modified method as described by Cavenaugh et al. (Cavenaugh et al. 1990, Invest. New Drugs 8:347-354). Briefly, medium was removed from each well of a plate scored for CPE from a CPE inhibition assay, 0.2 ml of neutral red (0.034% in PSS) was added to each of the wells of that plate and the plate incubated for 2 hr at 37° C. in the dark. The neutral red solution was removed from the wells and the wells rinsed twice with PBS (pH 7.4). Equal volumes (0.1 ml) of absolute ethanol and Sorenson citrate buffer (0.1 M sodium citrate, 0.1 M HCI, pH 4.2) were mixed together and added to each well. Plates were incubated in the dark for 30 min. at room temperature to solubilize the dye. The plates were then gently mixed on a 96-well plate adapted vortexer for 1 min. Absorbances at 540 nm and 450 nm were read with a microplate reader (Bio-Tek EL 1309; Bio-Tek Instruments, Inc. Winooski, Vt.). Absorbance values were expressed as percents of untreated controls and EC50 and IC50 values were calculated by regression analysis.

[5] = system: Hep-2 Cells; assay: Neutral red uptake assay of cytotoxicity in HEp-2 cells; assay type: cell-based, human; conditions: Table 11, neutral red, HEp2
Procedure: as §1, §2

[6] = 6.6 μM oligonucleotide/treatment at t+2, t+14, t+26 h
[7] = 9.9 μM oligonucleotide/treatment at t+2, t+14, t+26 h
[8] = 3.3 μM oligonucleotide/treatment at t+2, t+14, t+26 h
[9] = q.d. 1 day (added along with virus, never replenished)

**Q.** How did the “% Inhibition of RSV replication” value [1, 6] turn out when “A2'p(A2'p)3 -[(Bu)p]2 -(5'aat ggg atc cat ttt gtc c3'-3'c5') [A4-antiRSV3'-3'C/(8490-8509)]” was run?
**A.** Its value is 20%.

**Q.** What about the “% Inhibition of RSV replication” value [1, 7] of the same substance?
**A.** The value was 28.3%.

**Q.** With “pA2'p(A2'p)3 -[(Bu)p]2 -(3'ccc tgt ttt acc tag ggt aa5') [pA4-3'antiRSV5'/(8490-8509)]” as the substance, how does the “% Inhibition of RSV replication” value [1, 7] read?
**A.** Its value is 69%.

**Q.** What does the source list for “pA2'p(A2'p)3 -[(Bu)p]2 -(5'aat ggg atc cat ttt gtc c3'-3'c5') [pA4-antiRSV3'-3'C/(8490-8509)]”?
**A.** % Inhibition of RSV replication [1, 8]: 2%; % Inhibition of RSV replication [1, 6]: 64.3% and 38.8%; % Inhibition of RSV replication [1, 7]: 64.8% and 74%

**Q.** What does the source list for “pA2'p(A2'p)3 -[(Bu)p]2 -(5'aat ggg atc cat ttt gtc cc3') [pA4-antiRSV/(8490-8509)]”?
**A.** % Inhibition of RSV replication [1, 8]: 3%; % Inhibition of RSV replication [1, 6]: 38.8%; % Inhibition of RSV replication [1, 7]: 64.8%; inhibition of RSV replication ([1]; post-infection treatment, 10 μM at t+2, t+14, t+26): about 70%; inhibition of RSV replication ([1]; pre-/post-infection treatment, 10 μM at t-4, t0 and after infection): about 70%

**Q.** For “sp(5'A2')4 BupBupd(GsAsTsAGAAATAGAAAsGsCsA) (antisense GATAGAAATAGAAAGCA; chemistry not fully specified) [MP426, 2-5A-antisense control with scrambled antisense domain of MP351]”, which SI ([2]; B.I.D. 2 days) is on record?
**A.** The SI was over 32.

**Q.** What about the SI ([2]; B.I.D. 3 days) of the same substance?
**A.** Its SI is 16.

**Q.** What about the pEC50 ([2]; B.I.D. 3 days) of the same substance?
**A.** Its pEC50 is 6.70.

**Q.** And the SI ([2]; B.I.D. 4 days)?
**A.** Its SI is 3.2.

**Q.** And the pEC50 [2, 9]?
**A.** Its pEC50 is under 5.49.

**Q.** What about the SI ([2]; q.d. 3 days) of the same substance?
**A.** Its SI is over 1.

**Q.** What about the pEC50 ([2]; q.d. 3 days) of the same substance?
**A.** Its pEC50 is 5.49.

**Q.** What about the SI ([2]; q.d. 4 days) of the same substance?
**A.** The SI was over 3.2.

**Q.** What about the pIC50 ([3]; B.I.D. 2 days) of the same substance?
**A.** The pIC50 was under 5.49.

**Q.** What about the pIC50 ([3]; B.I.D. 3 days) of the same substance?
**A.** The pIC50 was 5.49.

**Q.** And the pIC50 ([3]; B.I.D. 4 days)?
**A.** Its pIC50 is 5.49.

**Q.** And the pIC50 [3, 9]?
**A.** The pIC50 was under 5.49.

**Q.** What about the pIC50 ([3]; q.d. 3 days) of the same substance?
**A.** Its pIC50 is under 5.49.

**Q.** What about the pIC50 ([3]; q.d. 4 days) of the same substance?
**A.** Its pIC50 is under 5.49.

**Q.** What about the SI ([4]; B.I.D. 2 days) of the same substance?
**A.** Its SI is over 11.

**Q.** What about the pEC50 ([4]; B.I.D. 2 days) of the same substance?
**A.** Its pEC50 is 6.52.

**Q.** And the SI ([4]; B.I.D. 3 days)?
**A.** The SI was 3.2.

**Q.** And the pEC50 ([4]; B.I.D. 4 days)?
**A.** The pEC50 was under 5.49.

**Q.** What about the pEC50 [4, 9] of the same substance?
**A.** Its pEC50 is under 5.49.

**Q.** And the pEC50 ([4]; q.d. 3 days)?
**A.** Its pEC50 is under 5.49.

**Q.** What about the pEC50 ([4]; q.d. 4 days) of the same substance?
**A.** The pEC50 was under 5.49.

**Q.** And the pIC50 ([5]; B.I.D. 2 days)?
**A.** The pIC50 was under 5.49.

**Q.** What about the pIC50 ([5]; B.I.D. 3 days) of the same substance?
**A.** Its pIC50 is 5.49.

**Q.** What about the pIC50 ([5]; B.I.D. 4 days) of the same substance?
**A.** Its pIC50 is 5.49.

**Q.** What about the pIC50 [5, 9] of the same substance?
**A.** Its pIC50 is under 5.49.

**Q.** What about the pIC50 ([5]; q.d. 3 days) of the same substance?
**A.** The pIC50 was 5.49.

**Q.** What about the pIC50 ([5]; q.d. 4 days) of the same substance?
**A.** The pIC50 was 5.49.

**Q.** Which “% Inhibition of RSV replication” value [1, 8] does the source give for “spA2'p(A2'p)3 -[(Bu)p]2 -(5'aat ggg atc cat ttt gtc cc3') [spA4-antiRSV/(8490-8509)]” here?
**A.** The value was 16.5%.

**Q.** What about the “% Inhibition of RSV replication” value [1, 6] of the same substance?
**A.** Its value is 71%.

**Q.** And the “% Inhibition of RSV replication” value [1, 7]?
**A.** The value was 94%.

**Q.** Which “% Inhibition of RSV replication” value [1, 8] does the source give for “spA2'p(A2'p)3 -[(Bu)p]2 -(5'ata gtg tgt tct ttt gat t3'-3'a5') [spA4-antiRSV3'-'3A/(8251-8270)]” here?
**A.** Its value is 86.7%.

**Q.** What about the “% Inhibition of RSV replication” value [1, 6] of the same substance?
**A.** Its value is 92%.

**Q.** “spA2'p(A2'p)3 -[(Bu)p]2 -(5'ctc tga gaa aga gat aa3'-3'c5') [spA4-antiRSV3'-3'C/(8561-8578)]” was tested. Which “% Inhibition of RSV replication” value [1, 8] did it give?
**A.** The value was 57%.

**Q.** “spA2'p(A2'p)3 -[(Bu)p]2 -(5'gat aag gac cat tga ata t3'-3'g5') [spA4-antiRSV3'-3'G/(8599-8618)]” was tested. Which “% Inhibition of RSV replication” value [1, 8] did it give?
**A.** Its value is 43% and 44%.

**Q.** What does the source list for “spA2'p(A2'p)3 -[(Bu)p]2 -(5'gat tga aat ata gtg tgt3'-3't5') [spA4-antiRSV3'-3'T/(8261-8279)]”?
**A.** % Inhibition of RSV replication [1, 8]: 78%; % Inhibition of RSV replication [1, 6]: 87%; % Inhibition of RSV replication [1, 7]: 87%
